Laboratory results published in patent US9795656B2, “Treatment of ocular diseases” (MARLYN NUTRACEUTICALS INC, priority 2006, dated 2017).
“Also recorded” adds a separate entry of the source.

B1: Papain (protein, UniProt P00784 134-345, looked up)
Papain: IPEYVDWRQKGAVTPVKNQGSCGSCWAFSAVVTIEGIIKIRTGNLNEYSEQELLDCDRRSYGCNGGYPWSALQLVAQYGIHYRNTYPYEGVQRYCRSREKGPYAAKTDGVRQVQPYNEGALLYSIANQPVSVVLEAAGKDFQLYRGGIFVGPCGNKVDHAVAAVGYGPNYILIKNSWGTGWGENGYIRIKRGTGNSYGVCGLYTSSFYPVKN

Key:
HUVEC [1] = assay: MTT assay with treated HUVEC (antiproliferative activity); format: cell-based, Human; details: for inhibition of VEGF stimulated proliferation (MTT): VEGF stimulated HUVEC, FIG. 5; for inhibition of VEGF stimulated proliferation (MTT) / % growth (MTT) / antiproliferative effect (MTT), in words: 48 hours; for % growth (MTT): at concentrations as low as 25 μg/ml; for antiproliferative effect (MTT), in words: concentration-response
Experimental: The antiproliferative activity of bromelain, nattokinase and papain and their mixtures was assessed using an 3-(4,5-dimethylthiazol-2-yl)-2,5-diphenyltetrazoliumbromide (MTT) assay. […] Cells were incubated further 48 hours at 37° C./95% humidity. The MTT Assay was carried out using an EZ4U MTT Kit (Biomedica, Austria; according to the instructions of the manufacturer). Optical density was measured at 450 nm with a reference wavelength of 620 nm. Results are expressed as % proliferation with 100% being the proliferation of the VEGF treated control.
To assess a possible antiproliferative activity of Rutosid an 3-(4,5-dimethylthiazol-2-yl)-2,5-diphenyltetrazoliumbromide (MTT) Assay was used. […] Cells were incubated further 48 hours at 37° C./95% humidity. The MTT-Assay was carried out using a EZ4U MTT Kit (Biomedica, Austria) according to the instructions of the manufacturer) Optical density was measured at 450 nm with a reference wavelength of 620 nm. Results are expressed as % proliferation with 100% being the proliferation of the VEGF treated control.

HUVEC [2] = tested on: HUVEC
Experimental: (§1) The antiproliferative activity of bromelain, nattokinase and papain was assessed using a Lactate Dehydrogenase (LDH) Assay. Human Umbilical Vein Endothelial Cells (HUVEC) from semi-confluent cultures were harvested by treatment with trypsin, seeded at a density of 2500 cells/well into 96-well microplates, previously coated with human fibronectin. In oder to allow proper attachment, cells were incubated for 24 hours in Endothelial Basal medium 2MV (Cambrex Biochemicals) containing 10% Fetal Calf Serum, 60 μg/ml Endothelial cell Growth Supplement, hrEGF, hrFGF2, hrIGF, hrVEGF, Ascorbic Acid and Heparin. After attachment, cells were starved by incubation at 37° C./95% humidity in Medium 199+10% Fetal Calf Serum (FCS) without growth factors. After 24 hours, the supernatant was replaced by Medium 199 containing 10% FCS, VEGF and varying concentrations of the enzymes. After an incubation period of 48 hours, supernatant was harvested and an LDH assay was performed according to the instructions of the manufacturer (Promega, Germany): 50 μl aliquots from all wells were transferred to a fresh 96-well flat-bottom (enzymatic assay) plate. The Assay Buffer was added to the Substrate Mix and mixed gently. 50 μl of reconstituted Substrate Mix was added to each well. The plate was incubated for 30 minutes at room temperature. 50 μl of Stop Solution was added to each well. Within one hour, optical density was measured at 490 nm with a reference wavelength of 620 nm. Results are expressed as % untreated control.
(§2) To test a possible cytotoxic activity of rutosid an Lactate Dehydrogenase (LDH) Assay was used. Human Umbilical Vein Endothelial Cells (HUVEC) from semi-confluent cultures were harvested by treatment with trypsin, seeded at a density of 2500 cells/well into 96-well microplates, previously coated with human fibronectin. In oder to allow proper attachment, cells were incubated for 24 hours in Endothelial Basal medium 2MV (Cambrex Biochemicals) containing 10% Fetal Calf Serum, 60 μg/ml Endothelial cell Growth Supplement, hrEGF, hrFGF-2, hrIGF, hrVEGF, ascorbic acid and heparin. After attachment, cells were starved by incubation at 37° C./95% humidity in Medium 199+10% Fetal Calf Serum (FCS) without growth factors. After 24 hours, the supernatant was replaced by Medium 199 containing 10% FCS, VEGF and varying concentrations of the enzymes. After an incubation period of 48 hours, supernatant was harvested and an LDH assay was performed according to the instructions of the manufacturer (Promega, Germany): 50 μl aliquots from all wells where transferred to a fresh 96-well flat-bottom (enzymatic assay) plate. […] Within one hour, optical density was measured at 490 nm with a reference wavelength of 620 nm. Results are expressed as % untreated control.

HUVEC [3] = assay: LDH release into supernatant of treated HUVEC (toxicity test); details: up to a level of including 25 μg/ml; 2 days of incubation
Experimental: as §1, §2

HUVEC [4] = assay: Tube formation assay on Matrigel (antiangiogenic activity); format: cell-based, Human; details: for inhibition of VEGF induced tube formation: FIG. 3, FIG. 7 right; for inhibition of spontaneous tube formation: no VEGF, FIG. 7 left; for ability to inhibit or prevent angiogenesis: general statement on proteases of mammalian origin
Experimental: Methods: Antiangiogenic activity was assessed using a tube formation assay. Growth factor reduced Matrigel (Becton Dickinson, Vienna) was thawed at a temperature of 4° C. 50 μl per well were pipetted into the wells of a 96 well microtiter plate. The plate was left at 4° C. for 24 hours. Prior to the experiment, the plate was incubated for 30-60 minutes at 37° C. to solidify the gel. HUVEC were harvested by treatment with trypsin and seeded into Matrigel coated 96 well microplates at a density of 20.000 cells per well in Endothelial Growth Medium 2(MV) (Lonza, Brussels) supplemented with ascorbic acid and hydrocortisone according to the instructions of the manufacturer as well as […] heparin and 1% Fetal Bovine Serum. Drugs and VEGF were added to the desired concentrations. After further 16 hrs to 18, wells were photographed. The total length of tubes was determined using the ImageJ Software, measured by the Neuron Length Determination Plugin.

Row | Molecule | antiproliferative effect (MTT), in words (HUVEC [1]) | toxic effects on HUVEC (LDH release) (HUVEC [3]) | inhibition of VEGF induced tube formation (HUVEC [4]) | inhibition of spontaneous tube formation (HUVEC [4]) | other results
1 | C[C@@H]1O[C@@H](OC[C@H]2O[C@@H](Oc3c(-c4ccc(O)c(O)c4)oc4cc(O)cc(O)c4c3=O)[C@H](O)[C@@H](O)[C@@H]2O)[C@H](O)[C@H](O)[C@H]1O [Rutosid] | – | – | – | – | inhibition of VEGF stimulated proliferation (MTT) (HUVEC [1]): No inhibition of proliferation; inhibition of VEGF stimulated proliferation (MTT) (HUVEC [1]; listed as rutosid): does not inhibit; toxicity in HUVEC (LDH), overall (HUVEC [2]): negligible
2 | Bromelain | clear antiproliferative effect | did not show toxic effects | inhibited formation of tubes almost to the same extend as in untreated HUVEC | inhibited formation of tubes | % growth (MTT) (HUVEC [1]; 100% = VEGF treated control): 75%; inhibition of VEGF induced tube formation (HUVEC [4]; listed as bromelain): significant decrease
3 | Nattokinase | clear antiproliferative effect | did not show toxic effects | significant decrease; also recorded: inhibited formation of tubes almost to the same extend as in untreated HUVEC | inhibited formation of tubes | –
4 | chymotrypsin [reference compound] | – | – | but not chymotrypsin or trypsin inhibited formation of tubes | but not chymotrypsin or trypsin inhibited formation of tubes | ability to inhibit or prevent angiogenesis (HUVEC [4]): not able to inhibit or prevent angiogenesis
5 | ficin | – | – | significant decrease; also recorded: inhibited formation of tubes almost to the same extend as in untreated HUVEC | inhibited formation of tubes | –
6 | serrapeptase | – | – | significant decrease; also recorded: inhibited formation of tubes almost to the same extend as in untreated HUVEC | inhibited formation of tubes | –
7 | trypsin [reference compound] | – | – | but not chymotrypsin or trypsin inhibited formation of tubes | but not chymotrypsin or trypsin inhibited formation of tubes | ability to inhibit or prevent angiogenesis (HUVEC [4]): not able to inhibit or prevent angiogenesis
8 | B1 | clear antiproliferative effect | did not show toxic effects | significant decrease; also recorded: inhibited formation of tubes almost to the same extend as in untreated HUVEC | inhibited formation of tubes | % growth (MTT) (HUVEC [1]; 100% = VEGF treated control): 75%; % Proliferation (HUVEC [1]; combinations of bromelain, nattokinase and papain in presence of VEGF, 100% = VEGF treated control): 75.45%; % tube formation (HUVEC [4]; in presence of VEGF, 100% = samples treated with VEGF only): 60.14%
